# Test results reported in US20200230068A1, “COMPOSITIONS AND METHODS OF DELIVERY OF PHARMACOLOGICAL AGENTS” (NAL PHARMACEUTICAL GROUP LIMITED, priority 2017, published 2020).
# Columns and labels:
# [1] = target: sst2a receptor expressed on CHO-K1 cells (UniProt P30874); experiment: cell-based or functional assay
# [2] = CellTiter-Glo Luminescent Cell Viability Assay (cytotoxicity); conditions: Chinese hamster; for cytotoxicity at 20 minutes, 0.01 µM: Cytotoxicity %
# Procedure: Conjugated Complex has been tested in CHO cells expressing human recombinant sst2a. Cell viability was measured using the CellTiter-Glo® Luminescent Cell Viability Assay (Promega) that determines the number of viable cells in culture, based on quantitation of the ATP present that is an indicator of metabolically active cells.
# After dispensing test compounds to the wells, cells in the incubation buffer were added to the wells and incubated for 20 minutes. At the end of incubation, CellTiter-Glo was added to each well to measure luminescence.
# [3] = cited from earlier work
# [4] = Stability in rat plasma in vitro; assay type: in vitro ADME
# Procedure: SST-Albumin fusion proteins may have a longer serum half-life and/or more stabilized activity in solution or in a pharmaceutical composition in vitro and/or in vivo compared to the corresponding unfused SST molecules. In rat plasma, for example, more than 90% of SST fusion protein was detected until 40 minutes of incubation, and more than 70% of SST fusion proteins remained up to at least 180 min. Under the same conditions, less than about 50% of free SST remained after 40 minute incubation, and no free SST was detected beyond 120 minutes. […] Thus, it would take about 72 hours for the concentration of SST fusion protein to reach zero concentration in plasma.
# The stability of free SST and SST fusion protein was compared in in vitro rat plasma.
# Sequence of UniProt P30874 (P30874 whole entry): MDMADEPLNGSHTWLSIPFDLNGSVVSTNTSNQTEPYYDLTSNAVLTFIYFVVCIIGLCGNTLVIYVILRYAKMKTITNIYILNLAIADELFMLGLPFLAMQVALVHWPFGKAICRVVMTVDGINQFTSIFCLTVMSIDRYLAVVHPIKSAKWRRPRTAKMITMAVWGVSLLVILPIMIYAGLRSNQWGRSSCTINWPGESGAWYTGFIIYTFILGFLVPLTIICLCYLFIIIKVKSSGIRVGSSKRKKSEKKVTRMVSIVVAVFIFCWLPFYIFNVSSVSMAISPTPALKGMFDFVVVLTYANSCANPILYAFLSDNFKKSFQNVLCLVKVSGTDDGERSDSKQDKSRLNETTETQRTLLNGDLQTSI
molecule,measurement,setting,value
Octreotide (peptide),"EC50 (adenylyl cyclase assay, CHO-K1 cells expressing sst2a receptor)",[1],0.039 nM
C[C@@H](O)[C@@H]1NC(=O)[C@H](CCCCN)NC(=O)[C@@H](Cc2c[nH]c3ccccc23)NC(=O)[C@H](Cc2ccccc2)NC(=O)[C@@H](NC(=O)[C@H](N)Cc2ccccc2)CSSC[C@@H](C(=O)N[C@H](CO)[C@@H](C)O)NC1=O [Octreotide],"cytotoxicity at 20 minutes, 0.01 µM","[2]; Test 2, 10 nM",8%
same,"cytotoxicity at 20 minutes, 0.01 µM","[2]; test 1, 10 nM",-4%
C[C@@H]1CC[C@@]2(OC1)O[C@H]1[C@@H](O)[C@H]3[C@@H]4CC[C@H]5C[C@@H](O[C@@H]6O[C@H](CO)[C@H](O[C@@H]7O[C@H](CO)[C@@H](O)[C@H](O[C@@H]8OC[C@@H](O)[C@H](O)[C@H]8O)[C@H]7O[C@@H]7O[C@H](CO)[C@H](O)[C@H](O[C@@H]8O[C@H](CO)[C@@H](O)[C@H](O)[C@H]8O)[C@H]7O)[C@H](O)[C@H]6O)[C@H](O)C[C@]5(C)[C@H]4CC[C@]3(C)[C@H]1[C@@H]2C [Digitonin],"cytotoxicity at 20 min, 20 mg/ml",[2],100%
insulin-like growth factor-I [IGF-1],half-life,[3],10 to 20 min
"C[C@H](N)C(=O)NCC(=O)N[C@H]1CSSC[C@@H](C(=O)O)NC(=O)[C@H](CO)NC(=O)[C@H]([C@@H](C)O)NC(=O)[C@H](Cc2ccccc2)NC(=O)[C@H]([C@@H](C)O)NC(=O)[C@H](CCCCN)NC(=O)[C@H](Cc2c[nH]c3ccccc23)NC(=O)[C@H](Cc2ccccc2)NC(=O)[C@H](Cc2ccccc2)NC(=O)[C@H](CC(N)=O)NC(=O)[C@H](CCCCN)NC1=O [free SST, somatostatin]",time up to which detected in rat plasma (not detected beyond),[4]; rat plasma incubation,≤ 120 min
same,remaining at 40 min,"[4]; rat plasma, 40 minutes of incubation, read-out: fraction detected/remaining in rat plasma",< 50%
